We go through ten compounds from patent US20260297060A1, “COMPOUNDS FOR THE DEGRADATION OF MUTANT BRAF” (C4 THERAPEUTICS, INC., priority 2023, published 2026).

The target in this test is T1, BRAF V600E (Homo sapiens, UniProt P15056+Q96SW2, V600E).
T1 construct: knock-in of the HiBiT tag to the endogenous BRAF V600E locus; host or cells: A375.10 (A375 clonal line, CRISPR HiBiT knock-in at the endogenous BRAF V600E locus)
The test is described as follows: BRAF V600E HiBiT Degradation Assay. It is filed as cell-based. The essentials:
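Endogenous HiBiT knock-in on BRAF V600E in A375 cells (clone A375.10); 11-point half-log series, top 10 μM, 2, 6 or 24 h at 37° C. Lytic HiBiT luminescence, background-subtracted, normalized to DMSO; 4-parameter fit gives DC50, Emax (residual protein) and IP (inflection point).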

[1] abbreviates: A375.10 cells, BRAF V600E, 2 hours, inflection point, read-out: HiBiT-Degradation A375.10 BRAF 2 hours IP.
Setting [2] is: A375.10 cells, BRAF V600E, 2 hours, read-out: HiBiT-Degradation A375.10 BRAF 2 hours DC50.
Where [3] appears, read: read-out: HiBiT-Degradation A375.10 BRAF 2 hours Emax, A375.10 cells, BRAF V600E, 2 hours, residual protein remaining.
The mark [4] stands for this setting: A375.10 cells, BRAF V600E, 2 hours, residual protein remaining, read-out: HiBiT-Degradation A375.10 BRAF 2 hours Emax.
The mark [5] stands for this setting: A375.10 cells, BRAF V600E, 6 hours, inflection point, read-out: HiBiT-Degradation A375.10 BRAF 6 hours IP.
Where [6] appears, read: A375.10 cells, BRAF V600E, 6 hours, read-out: HiBiT-Degradation A375.10 BRAF 6 hours DC50.
The mark [7] stands for this setting: A375.10 cells, BRAF V600E, 6 hours, residual protein remaining, read-out: HiBiT-Degradation A375.10 BRAF 6 hours Emax.
The mark [8] stands for this setting: A375.10 cells, HiBiT, BRAF V600E, 24 hours, read-out: HiBiT-Degradation A375.10 BRAF 24 hours DC50.
The mark [9] stands for this setting: A375.10 cells, HiBiT, BRAF V600E, 24 hours, read-out: HiBiT-Degradation A375.10 BRAF 24 hours Emax.
Where [10] appears, read: A375.10 cells, HiBiT, BRAF V600E, 24 hours, read-out: HiBiT-Degradation A375.10 BRAF 24 hours IP.

Read-outs that look alike come from different tables or passages of the source.

Broadly, the Emax is the greatest response seen or fitted, relative to the assay's reference.

T1 sequence (P15056 whole entry V600E): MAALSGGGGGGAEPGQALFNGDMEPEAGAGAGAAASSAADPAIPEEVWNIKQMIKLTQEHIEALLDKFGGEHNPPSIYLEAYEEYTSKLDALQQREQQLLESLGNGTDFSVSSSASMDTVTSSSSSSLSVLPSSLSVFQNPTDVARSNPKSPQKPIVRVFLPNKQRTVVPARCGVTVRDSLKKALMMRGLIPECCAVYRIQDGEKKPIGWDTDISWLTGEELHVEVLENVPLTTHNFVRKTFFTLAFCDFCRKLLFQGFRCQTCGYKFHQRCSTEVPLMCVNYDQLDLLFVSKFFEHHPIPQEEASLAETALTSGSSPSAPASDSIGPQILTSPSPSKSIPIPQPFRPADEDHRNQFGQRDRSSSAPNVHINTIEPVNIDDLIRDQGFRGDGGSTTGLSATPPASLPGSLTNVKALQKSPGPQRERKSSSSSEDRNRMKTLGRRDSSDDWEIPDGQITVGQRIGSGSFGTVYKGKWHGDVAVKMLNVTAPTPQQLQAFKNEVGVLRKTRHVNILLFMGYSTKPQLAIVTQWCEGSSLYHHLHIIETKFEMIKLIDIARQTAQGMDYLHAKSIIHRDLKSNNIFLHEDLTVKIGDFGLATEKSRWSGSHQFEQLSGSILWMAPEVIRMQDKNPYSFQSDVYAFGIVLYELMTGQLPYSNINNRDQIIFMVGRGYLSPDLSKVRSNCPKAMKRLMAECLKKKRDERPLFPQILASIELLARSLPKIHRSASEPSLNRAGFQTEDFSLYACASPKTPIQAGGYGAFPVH
T1 sequence (Q96SW2 whole entry): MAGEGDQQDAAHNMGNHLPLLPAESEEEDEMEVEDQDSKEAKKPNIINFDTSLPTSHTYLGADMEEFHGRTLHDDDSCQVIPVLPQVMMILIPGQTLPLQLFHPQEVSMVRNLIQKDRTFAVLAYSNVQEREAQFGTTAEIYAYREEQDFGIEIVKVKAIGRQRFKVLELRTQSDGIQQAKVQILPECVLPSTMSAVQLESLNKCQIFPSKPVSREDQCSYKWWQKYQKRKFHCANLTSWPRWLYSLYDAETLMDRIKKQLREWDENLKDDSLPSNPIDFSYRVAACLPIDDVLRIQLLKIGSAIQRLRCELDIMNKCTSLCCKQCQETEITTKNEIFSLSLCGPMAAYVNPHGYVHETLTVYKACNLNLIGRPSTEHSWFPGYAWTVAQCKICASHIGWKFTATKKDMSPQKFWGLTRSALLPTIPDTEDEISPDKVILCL
T1 sequence (Q16531 whole entry partner): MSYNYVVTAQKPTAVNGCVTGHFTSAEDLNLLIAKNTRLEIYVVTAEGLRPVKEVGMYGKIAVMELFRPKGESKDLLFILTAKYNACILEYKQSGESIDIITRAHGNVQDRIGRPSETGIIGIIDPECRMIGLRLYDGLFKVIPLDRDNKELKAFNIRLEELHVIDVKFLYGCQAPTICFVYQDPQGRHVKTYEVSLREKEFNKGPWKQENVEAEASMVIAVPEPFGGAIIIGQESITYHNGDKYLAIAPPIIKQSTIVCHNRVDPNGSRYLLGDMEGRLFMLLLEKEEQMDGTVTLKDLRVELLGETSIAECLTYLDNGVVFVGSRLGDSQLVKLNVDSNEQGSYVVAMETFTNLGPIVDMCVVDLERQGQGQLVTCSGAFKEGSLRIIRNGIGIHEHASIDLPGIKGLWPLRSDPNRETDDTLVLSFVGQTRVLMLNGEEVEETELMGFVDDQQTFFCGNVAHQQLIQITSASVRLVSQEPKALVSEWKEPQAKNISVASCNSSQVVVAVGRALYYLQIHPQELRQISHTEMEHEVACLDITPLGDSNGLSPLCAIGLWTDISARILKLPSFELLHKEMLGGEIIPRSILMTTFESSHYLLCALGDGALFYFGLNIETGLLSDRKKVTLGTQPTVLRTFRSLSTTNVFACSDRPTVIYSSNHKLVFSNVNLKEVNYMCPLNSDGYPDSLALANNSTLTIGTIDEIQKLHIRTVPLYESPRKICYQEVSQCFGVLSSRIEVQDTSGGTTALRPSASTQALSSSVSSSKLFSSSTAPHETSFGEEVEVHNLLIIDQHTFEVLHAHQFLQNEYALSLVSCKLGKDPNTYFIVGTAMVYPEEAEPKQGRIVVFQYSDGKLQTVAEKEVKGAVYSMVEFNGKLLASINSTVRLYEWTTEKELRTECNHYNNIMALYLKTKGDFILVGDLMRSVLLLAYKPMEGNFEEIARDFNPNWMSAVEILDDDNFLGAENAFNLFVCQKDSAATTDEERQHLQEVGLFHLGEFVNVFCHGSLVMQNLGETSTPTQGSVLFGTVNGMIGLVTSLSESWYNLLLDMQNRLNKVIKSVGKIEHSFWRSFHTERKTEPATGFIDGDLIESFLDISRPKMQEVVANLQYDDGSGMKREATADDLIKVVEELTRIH

In the case of `CCN(C)S(=O)(=O)Nc1ccc(F)c(Oc2ccc3ncc([C@H]4COC5(CCN(C6CCC(c7cc8c(cc7F)c(N7CCC(=O)NC7=O)nn8C)CC6F)CC5)C4)nc3c2)c1C#N` (single isomer, unassigned) [Compound 160], the DC50 is less than 1000 nM under setting [1] and less than 1000 nM under setting [2]. Under setting [3], the Emax was less than 50%.
Regarding `CCN(C)S(=O)(=O)Nc1ccc(F)c(Oc2ccc3ncn(C4CC5(CCN(C6CCC(c7cc8c(cc7F)c(N7CCC(=O)NC7=O)nn8C)CC6F)CC5)C4)c(=O)c3c2)c1F` (single isomer, unassigned) [Compound 184], the DC50 under setting [1] was less than 1000 nM; the DC50 under setting [2] was less than 1000 nM; the DC50 under setting [5] is less than 1000 nM; the DC50 under setting [6] was less than 1000 nM; the DC50 under setting [8] is less than 1000 nM; the DC50 under setting [10] was less than 1000 nM. In addition, the Emax by setting is: under setting [4], less than 50%; under setting [7], less than 50%; under setting [9], less than 50%.
For `CCN(C)S(=O)(=O)Nc1ccc(F)c(Oc2ccc3ncn([C@H]4COC5(CCN(C6CCC(c7ccc(NC8CCC(=O)NC8=O)cc7F)CC6)CC5)C4)c(=O)c3c2F)c1C#N` (single isomer, unassigned) [Compound 50], the DC50 under setting [1] was less than 1000 nM; the DC50 under setting [2] is less than 1000 nM; the DC50 under setting [5] was less than 1000 nM; the DC50 under setting [6] is less than 1000 nM; the DC50 under setting [8] is less than 1000 nM; the DC50 under setting [10] is less than 1000 nM. The maximal response (Emax) is, setting by setting: under setting [4], less than 50%; under setting [7], less than 50%; under setting [9], less than 50%.
Take `Cn1nc(N2CCC(=O)NC2=O)c2cc(F)c(N3CC4(CC(N5CCC6(CC5)CC(n5cnc7ccc(Oc8c(F)ccc(NS(=O)(=O)N9CC[C@@H](F)C9)c8C#N)cc7c5=O)C6)C4)C3)cc21` [Compound 261, (3R)-N-[2-cyano-3-[3-[7-[2-[3-(2,4-dioxohexahydropyrimidin-1-yl)-5-fluoro-1-methyl-indazol-6-yl]-2-azaspiro[3.3]heptan-6-yl]-7-azaspiro[3.5]nonan-2-yl]-4-oxo-quinazolin-6-yl]oxy-4-fluoro-phenyl]-3-fluoro-pyrrolidine-1-sulfonamide]: the DC50 (read-out: HiBiT-Degradation A375.10 BRAF 2 hours DC50, A375.10 cells, BRAF V600E, 2 hours) was less than 1000 nM and the DC50 (read-out: HiBiT-Degradation A375.10 BRAF 2 hours IP, A375.10 cells, BRAF V600E, 2 hours, inflection point) was less than 1000 nM. Also, the Emax under setting [3] was less than 50%.
In the case of `CCN(C)S(=O)(=O)Nc1ccc(F)c(Oc2ccc3ncn([C@H]4COC5(CCC(N6CC7(CN(c8cc9c(cc8F)c(N8CCC(=O)NC8=O)nn9C)C7)C6)CC5)C4)c(=O)c3c2)c1C#N` (stereo partly drawn) [Compound 27, 6-[2-cyano-3-[[ethyl(methyl)sulfamoyl]amino]-6-fluoro-phenoxy]-3-[(3R)-8-[6-[3-(2,4-dioxohexahydropyrimidin-1-yl)-5-fluoro-1-methyl-indazol-6-yl]-2,6-diazaspiro[3.3]heptan-2-yl]-1-oxaspiro[4.5]decan-3-yl]-4-oxo-quinazoline], the DC50 under setting [1] is less than 1000 nM; the DC50 under setting [2] is less than 1000 nM; the DC50 under setting [5] is less than 1000 nM; the DC50 under setting [6] is less than 1000 nM; the DC50 under setting [8] was less than 1000 nM; the DC50 under setting [10] was less than 1000 nM. In addition, the Emax by setting is: under setting [4], less than 50%; under setting [7], less than 50%; under setting [9], less than 50%.
Take `CCN(C)S(=O)(=O)Nc1ccc(F)c(Oc2ccc3ncn([C@H]4COC5(CCN(C6CCC(c7cc8c(cc7F)c(N7CCC(=O)NC7=O)nn8C)CC6F)CC5)C4)c(=O)c3c2)c1C#N` (single isomer, unassigned) [Compound 28]: the DC50 runs as follows: under setting [1], less than 1000 nM; under setting [2], less than 1000 nM; under setting [5], less than 1000 nM; under setting [6], less than 1000 nM; under setting [8], less than 1000 nM; under setting [10], less than 1000 nM. Further, the Emax is less than 50% under setting [7], less than 50% under setting [9] and less than 50% under setting [3].
In the case of `Cn1nc(N2CCC(=O)NC2=O)c2cc(F)c(N3CC4(CC(N5CCC6(CC5)C[C@@H](n5cnc7ccc(Oc8c(F)ccc(NS(=O)(=O)N9CC[C@@H](F)C9)c8C#N)cc7c5=O)CO6)C4)C3)cc21` [Compound 133, (3R)-N-[2-cyano-3-[3-[(3R)-8-[2-[3-(2,4-dioxohexahydropyrimidin-1-yl)-5-fluoro-1-methyl-indazol-6-yl]-2-azaspiro[3.3]heptan-6-yl]-1-oxa-8-azaspiro[4.5]decan-3-yl]-4-oxo-quinazolin-6-yl]oxy-4-fluoro-phenyl]-3-fluoro-pyrrolidine-1-sulfonamide], the DC50 by setting is: under setting [1], less than 1000 nM; under setting [2], more than 10000 nM; under setting [5], less than 1000 nM; under setting [6], less than 1000 nM; under setting [8], less than 1000 nM; under setting [10], less than 1000 nM. The maximum response (Emax) is, setting by setting: under setting [7], less than 50%; under setting [9], less than 50%; under setting [3], 50 to 90%.
On to `CCN(C)S(=O)(=O)Nc1ccc(F)c(Oc2ccc3ncn([C@H]4COC5(CCN(C6CCC(c7ccc(NC8CCC(=O)NC8=O)cc7F)CC6)CC5)C4)c(=O)c3c2)c1F` (single isomer, unassigned) [Compound 78], for which the DC50 under setting [1] is less than 1000 nM; the DC50 under setting [2] was less than 1000 nM; the DC50 under setting [5] was less than 1000 nM; the DC50 under setting [6] was less than 1000 nM; the DC50 under setting [8] is less than 1000 nM; the DC50 under setting [10] is less than 1000 nM. The Emax reads like this: under setting [4], less than 50%; under setting [7], less than 50%; under setting [9], less than 50%.
In the case of `CCN(C)S(=O)(=O)Nc1ccc(F)c(Oc2ccc3ncn([C@H]4COC5(CCN(C6CC7(C6)CN(c6cc8c(cc6F)c(N6CCC(=O)NC6=O)nn8C)C7)CC5)C4)c(=O)c3c2)c1C#N` [Compound 26, (3R)-3-[6-[2-cyano-3-[[ethyl(methyl)sulfamoyl]amino]-6-fluoro-phenoxy]-4-oxo-quinazolin-3-yl]-8-[2-[3-(2,4-dioxohexahydropyrimidin-1-yl)-5-fluoro-1-methyl-indazol-6-yl]-2-azaspiro[3.3]heptan-6-yl]-1-oxa-8-azaspiro[4.5]decane], the DC50 is less than 1000 nM under setting [1]; less than 1000 nM under setting [2]; less than 1000 nM under setting [5]; less than 1000 nM under setting [6]; less than 1000 nM under setting [8]; less than 1000 nM under setting [10]. Moreover, the Emax under setting [7] is less than 50%, the maximal response (Emax) under setting [9] is less than 50% and the Emax under setting [3] was less than 50%.
Take `CCN(C)S(=O)(=O)Nc1ccc(F)c(Oc2ccc3ncn(C4CC5(CCN(C6CCN(c7cc8c(cc7F)c(N7CCC(=O)NC7=O)nn8C)CC6)CC5)C4)c(=O)c3c2)c1C#N` [Compound 156, 6-[2-cyano-3-[[ethyl(methyl)sulfamoyl]amino]-6-fluoro-phenoxy]-3-[7-[1-[3-(2,4-dioxohexahydropyrimidin-1-yl)-5-fluoro-1-methyl-indazol-6-yl]-4-piperidyl]-7-azaspiro[3.5]nonan-2-yl]-4-oxo-quinazoline]: the DC50 under setting [1] was less than 1000 nM; the DC50 under setting [2] was less than 1000 nM; the DC50 under setting [5] was less than 1000 nM; the DC50 under setting [6] is less than 1000 nM; the DC50 under setting [8] was less than 1000 nM; the DC50 under setting [10] was less than 1000 nM. The maximum response (Emax) is, setting by setting: under setting [7], less than 50%; under setting [9], less than 50%; under setting [3], less than 50%.
